Experimental data published in PubChem BioAssay (NCI).
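Growth conditions: 96-well plates. Treatment: test compound, 48 hours, 5 concentrations. Analysis: linear interpolation between bracketing concentrations; unreached endpoints set to highest concentration. Here, GI50 denotes the concentration required for 50% inhibition of growth. TGI: concentration producing complete growth inhibition.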

Tests used:
Test in all cases: inhibition of tumour cell growth, NCI panel, 48 h
BT-549 breast = tested on: BT-549 breast
MCF7 breast = tested on: MCF7 breast
MDA-MB-231 breast = tested on: MDA-MB-231 breast
MDA-MB-435 = tested on: MDA-MB-435
786-0 renal = tested on: 786-0 renal
MALME-3M melanoma = tested on: MALME-3M melanoma
SK-MEL-5 melanoma = tested on: SK-MEL-5 melanoma
UACC-62 melanoma = tested on: UACC-62 melanoma
PC-3 prostate = tested on: PC-3 prostate
SN12C renal = tested on: SN12C renal
RPMI-8226 leukemia = tested on: RPMI-8226 leukemia
UACC-257 melanoma = tested on: UACC-257 melanoma
KM12 colon = tested on: KM12 colon
NCI-H522 lung = tested on: NCI-H522 lung
IGROV1 ovarian = tested on: IGROV1 ovarian
SR leukemia = tested on: SR leukemia
SK-OV-3 ovarian = tested on: SK-OV-3 ovarian
HCT-15 colon = tested on: HCT-15 colon
TK-10 renal = tested on: TK-10 renal
HOP-92 NSCLC = tested on: HOP-92 NSCLC
T-47D breast = tested on: T-47D breast
OVCAR-4 ovarian = tested on: OVCAR-4 ovarian
LOX IMVI melanoma = tested on: LOX IMVI melanoma
MDA-N = tested on: MDA-N
NCI/ADR-RES ovarian = tested on: NCI/ADR-RES ovarian
A549 NSCLC = tested on: A549 NSCLC
EKVX NSCLC = tested on: EKVX NSCLC
K-562 leukemia = tested on: K-562 leukemia
HS 578T breast = tested on: HS 578T breast
SW-620 colon = tested on: SW-620 colon
OVCAR-3 ovarian = tested on: OVCAR-3 ovarian
COLO 205 colon = tested on: COLO 205 colon
HCT-116 colon = tested on: HCT-116 colon
NCI-H226 lung = tested on: NCI-H226 lung
ACHN renal = tested on: ACHN renal
HCC-2998 colon = tested on: HCC-2998 colon
CAKI-1 renal = tested on: CAKI-1 renal
OVCAR-8 ovarian = tested on: OVCAR-8 ovarian
HOP-62 NSCLC = tested on: HOP-62 NSCLC
MOLT-4 leukemia = tested on: MOLT-4 leukemia
UO-31 renal = tested on: UO-31 renal
CCRF-CEM leukemia = tested on: CCRF-CEM leukemia
SK-MEL-2 melanoma = tested on: SK-MEL-2 melanoma
DU-145 prostate = tested on: DU-145 prostate
M14 melanoma = tested on: M14 melanoma
HL-60(TB) leukemia = tested on: HL-60(TB) leukemia
OVCAR-5 ovarian = tested on: OVCAR-5 ovarian
HT29 colon = tested on: HT29 colon
NCI-H23 lung = tested on: NCI-H23 lung
SNB-19 CNS = tested on: SNB-19 CNS
SNB-75 CNS = tested on: SNB-75 CNS
SF-539 CNS = tested on: SF-539 CNS
SF-295 CNS = tested on: SF-295 CNS
SK-MEL-28 melanoma = tested on: SK-MEL-28 melanoma
NCI-H460 lung = tested on: NCI-H460 lung
SF-268 CNS = tested on: SF-268 CNS
U251 CNS = tested on: U251 CNS

In the case of `O=c1[nH]cnc2c1ncn2C1CCC(CO)O1` (centres undefined), the TGI (BT-549 breast) was > 1000 µM, the GI50 (MCF7 breast) was > 1000 µM and the TGI (MCF7 breast) was > 1000 µM. For the same compound, the TGI (MDA-MB-231 breast) was > 1000 µM, the TGI (MDA-MB-435) was > 1000 µM and the TGI (786-0 renal) was > 1000 µM. The GI50 (MALME-3M melanoma) was > 1000 µM, the TGI (MALME-3M melanoma) was > 1000 µM and the GI50 (SK-MEL-5 melanoma) was > 1000 µM. The TGI (SK-MEL-5 melanoma) was > 1000 µM, the GI50 (UACC-62 melanoma) was > 1000 µM and the TGI (UACC-62 melanoma) was > 1000 µM. For the same compound, the TGI (PC-3 prostate) was > 1000 µM, the GI50 (SN12C renal) was > 1000 µM and the TGI (SN12C renal) was > 1000 µM. For the same compound, the GI50 (RPMI-8226 leukemia) was > 1000 µM, the TGI (RPMI-8226 leukemia) was > 1000 µM and the GI50 (UACC-257 melanoma) was > 1000 µM. For the same compound, the TGI (UACC-257 melanoma) was > 1000 µM, the GI50 (KM12 colon) was > 1000 µM and the TGI (KM12 colon) was > 1000 µM. For the same compound, the GI50 (NCI-H522 lung) was > 1000 µM, the TGI (NCI-H522 lung) was > 1000 µM and the GI50 (IGROV1 ovarian) was > 1000 µM. The TGI (IGROV1 ovarian) was > 1000 µM, the TGI (SR leukemia) was > 1000 µM and the GI50 (SK-OV-3 ovarian) was > 1000 µM. For the same compound, the TGI (SK-OV-3 ovarian) was > 1000 µM, the GI50 (HCT-15 colon) was > 1000 µM and the TGI (HCT-15 colon) was > 1000 µM. The TGI (TK-10 renal) was > 1000 µM, the GI50 (HOP-92 NSCLC) was > 1000 µM and the TGI (HOP-92 NSCLC) was > 1000 µM. The TGI (T-47D breast) was > 1000 µM, the GI50 (OVCAR-4 ovarian) was > 1000 µM and the TGI (OVCAR-4 ovarian) was > 1000 µM. The GI50 (LOX IMVI melanoma) was > 1000 µM, the TGI (LOX IMVI melanoma) was > 1000 µM and the TGI (MDA-N) was > 1000 µM. The GI50 (NCI/ADR-RES ovarian) was > 1000 µM, the TGI (NCI/ADR-RES ovarian) was > 1000 µM and the GI50 (A549 NSCLC) was > 1000 µM. For the same compound, the TGI (A549 NSCLC) was > 1000 µM, the GI50 (EKVX NSCLC) was > 1000 µM and the TGI (EKVX NSCLC) was > 1000 µM. The GI50 (K-562 leukemia) was > 1000 µM, the TGI (K-562 leukemia) was > 1000 µM and the TGI (HS 578T breast) was > 1000 µM. For the same compound, the GI50 (SW-620 colon) was > 1000 µM, the TGI (SW-620 colon) was > 1000 µM and the GI50 (OVCAR-3 ovarian) was > 1000 µM. The TGI (OVCAR-3 ovarian) was > 1000 µM, the GI50 (COLO 205 colon) was > 1000 µM and the TGI (COLO 205 colon) was > 1000 µM. The GI50 (HCT-116 colon) was > 1000 µM, the TGI (HCT-116 colon) was > 1000 µM and the GI50 (NCI-H226 lung) was > 1000 µM. The TGI (NCI-H226 lung) was > 1000 µM, the TGI (ACHN renal) was > 1000 µM and the GI50 (HCC-2998 colon) was > 1000 µM. The TGI (HCC-2998 colon) was > 1000 µM, the GI50 (CAKI-1 renal) was > 1000 µM and the TGI (CAKI-1 renal) was > 1000 µM. The GI50 (OVCAR-8 ovarian) was > 1000 µM, the TGI (OVCAR-8 ovarian) was > 1000 µM and the GI50 (HOP-62 NSCLC) was > 1000 µM. For the same compound, the TGI (HOP-62 NSCLC) was > 1000 µM, the GI50 (MOLT-4 leukemia) was > 1000 µM and the TGI (MOLT-4 leukemia) was > 1000 µM. For the same compound, the TGI (UO-31 renal) was > 1000 µM, the GI50 (CCRF-CEM leukemia) was > 1000 µM and the TGI (CCRF-CEM leukemia) was > 1000 µM. For the same compound, the GI50 (SK-MEL-2 melanoma) was > 1000 µM, the TGI (SK-MEL-2 melanoma) was > 1000 µM and the TGI (DU-145 prostate) was > 1000 µM. The TGI (M14 melanoma) was > 1000 µM, the GI50 (HL-60(TB) leukemia) was > 1000 µM and the TGI (HL-60(TB) leukemia) was > 1000 µM. The GI50 (OVCAR-5 ovarian) was > 1000 µM, the TGI (OVCAR-5 ovarian) was > 1000 µM and the GI50 (HT29 colon) was > 1000 µM. The TGI (HT29 colon) was > 1000 µM, the GI50 (NCI-H23 lung) was > 1000 µM and the TGI (NCI-H23 lung) was > 1000 µM.
For `Cc1cccc(/C=N/NC(=S)Nc2ccc(Cl)cc2)n1`, the TGI (BT-549 breast) was 30.4 µM, the TGI (MCF7 breast) was 25.9 µM and the TGI (MDA-MB-231 breast) was 15.8 µM. The TGI (MDA-MB-435) was 17.5 µM, the TGI (786-0 renal) was 12.1 µM and the TGI (MALME-3M melanoma) was 20.8 µM. It also gave a TGI (SK-MEL-5 melanoma) of 8.97 µM, a TGI (UACC-62 melanoma) of 3.68 µM and a TGI (PC-3 prostate) of 26.2 µM. The TGI (SN12C renal) was 34 µM, the TGI (RPMI-8226 leukemia) was > 100 µM and the TGI (UACC-257 melanoma) was 18.9 µM. For the same compound, the TGI (KM12 colon) was 40.8 µM, the TGI (NCI-H522 lung) was 4.93 µM and the TGI (IGROV1 ovarian) was 12.7 µM. For the same compound, the TGI (SR leukemia) was > 100 µM, the TGI (SK-OV-3 ovarian) was 10.8 µM and the TGI (HCT-15 colon) was 23.1 µM. For the same compound, the TGI (TK-10 renal) was 71.7 µM, the TGI (HOP-92 NSCLC) was 20 µM and the TGI (T-47D breast) was > 100 µM. The TGI (OVCAR-4 ovarian) was > 100 µM, the TGI (LOX IMVI melanoma) was 10.7 µM and the TGI (MDA-N) was 25.5 µM. The TGI (SNB-19 CNS) was 22.2 µM, the TGI (SNB-75 CNS) was 16.1 µM and the TGI (NCI/ADR-RES ovarian) was 26 µM. For the same compound, the TGI (A549 NSCLC) was 13.6 µM, the TGI (EKVX NSCLC) was 23.1 µM and the TGI (K-562 leukemia) was > 100 µM. For the same compound, the TGI (HS 578T breast) was 17.5 µM, the TGI (SW-620 colon) was 20 µM and the TGI (OVCAR-3 ovarian) was 61 µM. For the same compound, the TGI (SF-539 CNS) was 12.7 µM, the TGI (COLO 205 colon) was 17.6 µM and the TGI (HCT-116 colon) was 12.9 µM. It also gave a TGI (ACHN renal) of 11.3 µM, a TGI (SF-295 CNS) of 14.4 µM and a TGI (HCC-2998 colon) of 40.3 µM. For the same compound, the TGI (SK-MEL-28 melanoma) was 20 µM, the TGI (CAKI-1 renal) was 13.3 µM and the TGI (OVCAR-8 ovarian) was 33.7 µM. It also gave a TGI (NCI-H460 lung) of 15.9 µM, a TGI (HOP-62 NSCLC) of 11.9 µM and a TGI (MOLT-4 leukemia) of 10.9 µM. For the same compound, the TGI (UO-31 renal) was 12.5 µM, the TGI (CCRF-CEM leukemia) was 42.8 µM and the TGI (SK-MEL-2 melanoma) was 25.6 µM. For the same compound, the TGI (SF-268 CNS) was 17.4 µM, the TGI (DU-145 prostate) was > 100 µM and the TGI (M14 melanoma) was 7.69 µM. The TGI (OVCAR-5 ovarian) was 73.3 µM, the TGI (HT29 colon) was 54.5 µM and the TGI (NCI-H23 lung) was 34.9 µM. The TGI (U251 CNS) was 13.5 µM.
